Results from US20240247080A1, “GLP1/GIP/NPY2 RECEPTOR TRIPLE AGONISTS” (Boehringer Ingelheim International GmbH, priority 2022, published 2024).
Read-outs that look alike come from different tables or passages of the source.

How the values were obtained:
[1] = biological target: T1, hNPY2R (Homo sapiens, UniProt P49146); test: hNPY2R CreLuc reporter gene assay in 0.5% and 100% plasma; type: cell-based; conditions: CreLuc reporter gene assay
T1 construct: expressed in transfected cells; host or cells: HEK-293 cells carrying a CRE-luciferase reporter gene
T1 sequence (P49146 1-381): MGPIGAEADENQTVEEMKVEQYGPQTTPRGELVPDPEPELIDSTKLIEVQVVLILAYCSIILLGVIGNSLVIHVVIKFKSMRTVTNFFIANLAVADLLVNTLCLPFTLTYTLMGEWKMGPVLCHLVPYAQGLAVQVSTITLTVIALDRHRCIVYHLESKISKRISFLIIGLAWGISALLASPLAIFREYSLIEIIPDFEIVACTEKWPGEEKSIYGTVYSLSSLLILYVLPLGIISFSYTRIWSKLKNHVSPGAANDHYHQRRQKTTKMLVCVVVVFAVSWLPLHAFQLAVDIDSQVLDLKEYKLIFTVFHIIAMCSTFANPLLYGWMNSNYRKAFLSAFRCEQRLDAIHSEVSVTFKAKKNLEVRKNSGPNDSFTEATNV
Outline: (§1)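 Agonist EC50s came from 8-concentration curves over four decades, fitted by non-linear variable-slope regression of CRE-driven luciferase luminescence. Cells were exposed 4 h at 37 °C, in buffer with 0.5% human plasma or in 100% plasma; GIPR was expressed in CHO cells, GLP-1R and NPY2R in HEK cells.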

[2] = Effect on acute food intake in normal NMRI mice; type: in vivo; conditions: 30 nmol/kg subcutaneously once, normalized to vehicle group, male NMRI mice
Method: Example 4: Effect on Acute Food Intake in Normal NMRI Mice
Male NMRI mice were obtained from Janvier (Janvier Labs, France) or from Charles River (Charles River Research Models & Services Germany GmbH) at the age of 3 weeks. The animals get a microchip (Datamars, Slim Microchip T-SL) for individual identification after delivery. They were housed with 4 mice per cage under a 12/12 dark-light cycle, light off at 3 p.m. Room temperature was controlled to 21° C. +/−1° C. and humidity 60%+/−20%. Mice had ad libitum access to regular rodent chow (KLIBA Nafag 3040 or Altromin 1324, Brogaarden, Denmark) and tap water.
Latest transfer into the HM2-System of MBRose, Denmark (real-time monitoring system of food- and water intake) of the animals 5 days before study start, to allow acclimatization to experimental conditions. As the animals were uniquely identified with the microchips, each individual animal was identified by its own microchip upon entry and exit from the food channel via antennae. Randomization of the mice for each study group (n=8; age earliest 6 weeks old) was based on food intake (middle of last three days 24 h-Intervall) and bodyweight directly before start of the study. A vehicle treated (50 mM phosphate buffer pH7.4 with 3.5% Mannitol) group was included in each experiment. To have the same nutrition standard for each animal the food access was locked eight hours before dark phase. One hour before night, the animals were once treated subcutaneously with the test peptide. Food intake was reported hourly for a period of 24 h.

[3] = biological target: T2, hGIPR (Homo sapiens, UniProt P48546); test: hGIPR CreLuc reporter gene assay in 0.5% and 100% plasma; type: cell-based; conditions: CreLuc reporter gene assay
T2 construct: expressed in transfected cells; host or cells: CHO cells carrying a CRE-luciferase reporter gene
T2 sequence (P48546 22-466): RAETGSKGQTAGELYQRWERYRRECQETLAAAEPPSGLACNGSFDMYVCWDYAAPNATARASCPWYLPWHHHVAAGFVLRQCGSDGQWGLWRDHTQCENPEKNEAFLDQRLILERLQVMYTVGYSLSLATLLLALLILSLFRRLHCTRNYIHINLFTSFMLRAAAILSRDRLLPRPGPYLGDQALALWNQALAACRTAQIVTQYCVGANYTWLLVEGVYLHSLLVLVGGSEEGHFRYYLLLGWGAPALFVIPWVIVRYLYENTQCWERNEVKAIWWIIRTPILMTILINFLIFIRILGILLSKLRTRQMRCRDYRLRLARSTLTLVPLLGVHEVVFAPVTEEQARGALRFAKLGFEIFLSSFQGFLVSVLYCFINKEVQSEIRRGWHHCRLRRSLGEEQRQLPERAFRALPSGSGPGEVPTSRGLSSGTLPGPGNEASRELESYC
Outline: as §1

[4] = Mouse PK after intravenous application; type: in vivo; conditions: mean residence time, intravenous 30-60 nmol/kg, male NMRI mice
Outline: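 Male NMRI mice (30–40 g) received 30-60 nmol/kg peptide by tail-vein injection, dissolved in 50 mM phosphate buffer (pH 7.4)/3.5% mannitol. Saphenous blood was sampled up to 56 hours post-dose and EDTA plasma analysed by LC-MS. PK parameters came from non-compartmental analysis.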

[5] = biological target: T3, hGLP1R (Homo sapiens, UniProt P43220); test: hGLP1R CreLuc reporter gene assay in 0.5% and 100% plasma; type: cell-based; conditions: CreLuc reporter gene assay
T3 construct: expressed in transfected cells; host or cells: HEK-293 cells carrying a CRE-luciferase reporter gene
Outline: as §1

[6] = 100% human plasma, read-out: hNPY2R 100% hP
[7] = 0.5% human plasma, read-out: hGIPR 0.5% hP
[8] = 100% human plasma, read-out: hGIPR 100% hP
[9] = 0.5% human plasma, read-out: hGLP1R 0.5% hP

T3 sequence (P43220 24-463): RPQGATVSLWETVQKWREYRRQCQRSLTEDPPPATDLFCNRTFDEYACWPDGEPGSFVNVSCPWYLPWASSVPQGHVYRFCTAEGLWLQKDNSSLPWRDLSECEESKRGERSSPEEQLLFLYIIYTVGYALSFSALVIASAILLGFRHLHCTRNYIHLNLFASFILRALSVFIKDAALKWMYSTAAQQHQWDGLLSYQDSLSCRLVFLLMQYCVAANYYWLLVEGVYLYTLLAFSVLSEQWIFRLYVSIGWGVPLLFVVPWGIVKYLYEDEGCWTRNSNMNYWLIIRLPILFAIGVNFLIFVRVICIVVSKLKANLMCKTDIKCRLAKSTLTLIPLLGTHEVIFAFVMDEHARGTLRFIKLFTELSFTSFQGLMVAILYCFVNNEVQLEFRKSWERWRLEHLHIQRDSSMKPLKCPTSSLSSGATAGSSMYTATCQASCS

Structure (SMILES): CC[C@H](C)[C@H](NC(=O)[C@H](CC(C)C)NC(=O)[C@H](Cc1c[nH]c2ccccc12)NC(=O)[C@H](CCC(=O)O)NC(=O)[C@@H](NC(=O)[C@H](Cc1ccccc1)NC(=O)[C@H](C)NC(=O)C(C)(C)NC(=O)[C@H](CCC(N)=O)NC(=O)[C@H](C)NC(=O)[C@H](CCC(N)=O)NC(=O)[C@H](CCCCN)NC(=O)[C@H](CCC(=O)O)NC(=O)[C@H](CC(C)C)NC(=O)C(C)(C)NC(=O)[C@@H](NC(=O)[C@H](CO)NC(=O)[C@H](Cc1ccc(O)cc1)NC(=O)[C@H](CC(=O)O)NC(=O)[C@H](CO)NC(=O)[C@@H](NC(=O)[C@H](Cc1ccccc1)NC(=O)[C@@H](NC(=O)CNC(=O)[C@H](CCC(=O)O)NC(=O)C(C)(C)NC(=O)[C@@H](N)Cc1ccc(O)cc1)[C@@H](C)O)[C@@H](C)O)[C@@H](C)CC)C(C)C)C(=O)N[C@@H](CCCCNC(=O)[C@@H](N)CCCCNC(=O)CC[C@H](NC(=O)CC[C@H](NC(=O)CC[C@H](NC(=O)CC[C@H](NC(=O)CC[C@H](NC(=O)CC[C@H](NC(=O)CCCCCCCCCCCCCCCCC(=O)O)C(=O)O)C(=O)O)C(=O)O)C(=O)O)C(=O)O)C(=O)O)C(=O)NCC(=O)NCC(=O)N1CCC[C@H]1C(=O)N[C@@H](CO)C(=O)N[C@@H](CO)C(=O)NCC(=O)N[C@@H](C)C(=O)N[C@@H](CO)C(=O)N[C@@H](CC(C)C)C(=O)N[C@@H](CCCNC(=N)N)C(=O)N[C@@H](Cc1c[nH]cn1)C(=O)N[C@@H](Cc1ccc(O)cc1)C(=O)N[C@@H](Cc1ccc(O)cc1)C(=O)N[C@@H](CC(N)=O)C(=O)N[C@@H](Cc1c[nH]c2ccccc12)C(=O)N[C@@H](CC(C)C)C(=O)N[C@H](C(=O)N[C@@H](CCCNC(=N)N)C(=O)N[C@@H](CCC(N)=O)C(=O)N[C@@H](CCCNC(=N)N)C(=O)N[C@@H](Cc1ccc(O)cc1)C(N)=O)[C@@H](C)O [Compound 259, Y-Aib-E-G-T-F-T-S-D-Y-S-I-Aib-L-E-K-Q-A-Q-Aib-A-F-V-E-W-L-I-K(1,3)-GGPSSGASLRHYYNWLTRQRY-NH2.C18DA-gGlu-gGlu-gGlu-gGlu-gGlu-gGlu-eLys(1,2)]
- EC50 ([1]; 0.5% human plasma, read-out: hNPY2R 0.5% hP): 10.7 nM
- EC50 [1, 6]: 29.3 nM
- Acute Food Intake 24 h 30 nmol/kg [% CTL] [2]: 36 % CTL
- EC50 [3, 7]: 0.22 nM
- EC50 [3, 8]: 0.91 nM
- MRT ([4]; plasma): 8.4 h
- EC50 [5, 9]: 0.09 nM
- EC50 ([5]; 100% human plasma, read-out: hGLP1R 100% hP): 2.55 nM

Structure (SMILES): CC[C@H](C)[C@H](NC(=O)[C@H](CC(C)C)NC(=O)[C@H](Cc1c[nH]c2ccccc12)NC(=O)[C@H](CCC(=O)O)NC(=O)[C@@H](NC(=O)[C@H](Cc1ccccc1)NC(=O)[C@H](C)NC(=O)C(C)(C)NC(=O)[C@H](CCC(N)=O)NC(=O)[C@H](C)NC(=O)[C@H](CCC(N)=O)NC(=O)[C@H](CCCCN)NC(=O)[C@H](CCC(=O)O)NC(=O)[C@H](CC(C)C)NC(=O)C(C)(C)NC(=O)[C@@H](NC(=O)[C@H](CO)NC(=O)[C@H](Cc1ccc(O)cc1)NC(=O)[C@H](CC(=O)O)NC(=O)[C@H](CO)NC(=O)[C@@H](NC(=O)[C@H](Cc1ccccc1)NC(=O)[C@@H](NC(=O)CNC(=O)[C@H](CCC(=O)O)NC(=O)C(C)(C)NC(=O)[C@@H](N)Cc1ccc(O)cc1)[C@@H](C)O)[C@@H](C)O)[C@@H](C)CC)C(C)C)C(=O)N[C@@H](CCCCNC(=O)[C@@H](N)CCCCNC(=O)[C@H](CCC(=O)O)NC(=O)CC[C@H](NC(=O)CC[C@H](NC(=O)CC[C@H](NC(=O)CC[C@H](NC(=O)CC[C@H](NC(=O)CCCCCCCCCCCCCCCCCCC(=O)O)C(=O)O)C(=O)O)C(=O)O)C(=O)O)C(=O)O)C(=O)NCC(=O)NCC(=O)N1CCC[C@H]1C(=O)N[C@@H](CO)C(=O)N[C@@H](CCC(=O)O)C(=O)NCC(=O)N[C@@H](C)C(=O)N[C@@H](CO)C(=O)N[C@@H](CC(C)C)C(=O)N[C@@H](CCCNC(=N)N)C(=O)N[C@@H](Cc1c[nH]cn1)C(=O)N[C@@H](Cc1ccc(O)cc1)C(=O)N[C@@H](Cc1ccc(O)cc1)C(=O)N[C@@H](CC(N)=O)C(=O)N[C@@H](Cc1c[nH]c2ccccc12)C(=O)N[C@@H](CC(C)C)C(=O)N[C@H](C(=O)N[C@@H](CCCNC(=N)N)C(=O)N[C@@H](CCC(N)=O)C(=O)N[C@@H](CCCNC(=N)N)C(=O)N[C@@H](Cc1ccc(O)cc1)C(N)=O)[C@@H](C)O [Compound 286, Y-Aib-E-G-T-F-T-S-D-Y-S-I-Aib-L-E-K-Q-A-Q-Aib-A-F-V-E-W-L-I-K(1,3)-GGPSEGASLRHYYNWLTRQRY-NH2.C20DA-gGlu-gGlu-gGlu-gGlu-gGlu-Glu-eLys(1,2)]
- Acute Food Intake 24 h 30 nmol/kg [% CTL] [2]: 58 % CTL
- MRT ([4]; in vivo): 11 h

Structure (SMILES): CC[C@H](C)[C@H](NC(=O)[C@H](CC(C)C)NC(=O)[C@H](Cc1c[nH]c2ccccc12)NC(=O)[C@H](CCC(N)=O)NC(=O)[C@@H](NC(=O)[C@H](Cc1ccccc1)NC(=O)[C@H](C)NC(=O)C(C)(C)NC(=O)[C@H](CCC(N)=O)NC(=O)[C@H](C)NC(=O)[C@H](CCC(N)=O)NC(=O)[C@H](CCCCN)NC(=O)[C@H](CCC(=O)O)NC(=O)[C@H](CC(C)C)NC(=O)C(C)(C)NC(=O)[C@@H](NC(=O)[C@H](CO)NC(=O)[C@H](Cc1ccc(O)cc1)NC(=O)[C@H](CC(=O)O)NC(=O)[C@H](CO)NC(=O)[C@@H](NC(=O)[C@H](Cc1ccccc1)NC(=O)[C@@H](NC(=O)CNC(=O)[C@H](CCC(=O)O)NC(=O)C(C)(C)NC(=O)[C@@H](N)Cc1ccc(O)cc1)[C@@H](C)O)[C@@H](C)O)[C@@H](C)CC)C(C)C)C(=O)N[C@@H](CCCCNC(=O)[C@@H](N)CCCCNC(=O)CC[C@H](NC(=O)CC[C@H](NC(=O)CC[C@H](NC(=O)CC[C@H](NC(=O)CC[C@H](NC(=O)CC[C@H](NC(=O)CCCCCCCCCCCCCCCCC(=O)O)C(=O)O)C(=O)O)C(=O)O)C(=O)O)C(=O)O)C(=O)O)C(=O)NCC(=O)NCC(=O)N1CCC[C@H]1C(=O)N[C@@H](CO)C(=O)N[C@@H](CCC(=O)O)C(=O)NCC(=O)N[C@@H](C)C(=O)N[C@@H](CO)C(=O)N[C@@H](CC(C)C)C(=O)N[C@@H](CCCNC(=N)N)C(=O)N[C@@H](Cc1c[nH]cn1)C(=O)N[C@@H](Cc1ccc(O)cc1)C(=O)N[C@@H](Cc1ccc(O)cc1)C(=O)N[C@@H](CC(N)=O)C(=O)N[C@@H](Cc1c[nH]c2ccccc12)C(=O)N[C@@H](CC(C)C)C(=O)N[C@H](C(=O)N[C@@H](CCCNC(=N)N)C(=O)N[C@@H](CCC(N)=O)C(=O)N[C@@H](CCCNC(=N)N)C(=O)N[C@@H](Cc1ccc(O)cc1)C(N)=O)[C@@H](C)O [Compound 265, Y-Aib-E-G-T-F-T-S-D-Y-S-I-Aib-L-E-K-Q-A-Q-Aib-A-F-V-Q-W-L-I-K(1,3)-GGPSEGASLRHYYNWLTRQRY-NH2.C18DA-gGlu-gGlu-gGlu-gGlu-gGlu-gGlu-eLys(1,2)]
- EC50 [1, 6]: 23 nM
- Acute Food Intake 24 h 30 nmol/kg [% CTL] [2]: 50 % CTL
- EC50 [3, 7]: 0.39 nM
- EC50 [3, 8]: 0.79 nM
- MRT ([4]; plasma): 8.5 h
- EC50 [5, 9]: 0.1 nM
